In patent publication US12391698B2, “Substituted piperidines and piperazines and methods for the treatment of CNS disorders” (SUVEN LIFE SCIENCES LIMITED, priority 2022, dated 2025):
Counter-ions that a name gives are not always drawn.

Experiments:
[1] = system: dopamine receptor; experiment: Reserpine-induced dihydroxyphenylalanine (DOPA) accumulation assay in rat striatum; type: in vivo; conditions: s.c.
Description: Reserpine (5.0 mg/kg, s.c.) was injected, after which rats were fasted for 18 h before sacrifice. […] Each rat was sacrificed and the striatum was dissected out of the whole brain on ice. Each striatum was weighed and homogenized individually in buffer containing 0.01 N hydrochloric acid and 0.2 mg/ml L-cysteine. Supernatants were subjected for quantification of DOPA using HPLC coupled to electrochemical detector.

[2] = target: T1, recombinant human 5-HT2A receptor (Homo sapiens, UniProt P28223); experiment: Determination of Kb at 5-HT2A receptor, pCRE-Luc reporter gene assay in CHO cells; type: cell-based
T1 construct: expressed in transfected cells
Description: A stable CHO cell line expressing recombinant human 5-HT2A receptor and pCRE-Luc reporter system was used for cell-based assay. The assay offers a non-radioactive based approach to determine binding of a compound to GPCRs. In this specific assay, the level of intracellular cAMP which is modulated by activation or inhibition of the receptor was measured. The recombinant cells harbor luciferase reporter gene under the control of cAMP response element.
(§1) The above cells were grown in 96 well clear bottom white plates in Hams F12 medium containing 10% fetal bovine serum (FBS). Prior to the addition of compounds or standard agonist, cells were serum starved overnight. Increasing concentrations of test compound were added along with 1 μM of serotonin in Opti-MEM medium to the cells. The incubation was continued at 37° C. in CO2 incubator for 4 hours. Medium was removed and cells were washed with phosphate buffered saline. The cells were lysed and luciferase activity was measured in a Luminometer. Luminescence units were plotted against the compound concentrations using GraphPad Prism software. EC50 values of the compounds were defined as the concentration required in reducing the luciferase activity by 50%. The Kb values were calculated by feeding the concentration of agonist used in the assay and its EC50 value in the same software.

[3] = system: Rats; experiment: Tardive dyskinesia test (vacuous chewing movements and tongue protrusions); type: in vivo, rat; conditions: 10 mg/kg, p.o. (5 mg twice a day) for 4 weeks
Description: Rats weighing 200-230 g were acclimatized to the plexiglass observation cages (30×20×30 cm) equipped with mirrors for 5 min. After acclimatization, basal vacuous chewing movements (VCMs) and tongue protrusions (TPs) of the rats were quantified manually for 5 min. Rats were randomized based on the basal readings. Rats received a single dose of sesame oil (vehicle treatment) or haloperidol decanoate (38 mg/kg, i.m. positive control). Example-2, 10 mg/kg, p.o. ([…]) was administered for 4 weeks. VCMs and TPs were scored on weekly basis for 4 weeks. Tardive dyskinesia is a side effect of antipsychotic medications.

[4] = system: Dopamine and norepinephrine levels in prefrontal cortex and striatum; experiment: Modulation in dopamine and norepinephrine levels in prefrontal cortex and striatum (microdialysis); type: in vivo; conditions: male Wistar rats; for mean maximum increase in dopamine levels in prefrontal cortex / mean maximum increase in norepinephrine levels in prefrontal cortex: s.c. (so in the source), basal = 100%
[5] = system: Male Swiss albino mice; experiment: Forced swim test; type: in vivo, mouse; conditions: 10 mg/kg, p.o., 30 min after treatment
Description: Male Swiss albino mice having weight range of 30-40 g were used. Mice were dosed with vehicle or test compound. Thirty min after treatment, animals were individually placed inside the plexiglass cylinder (40 cm height×17 cm width) for 6 min. The depth of water (24±1° C.) was maintained at 18 cm. The immobility of the mice during the last 4 min were recorded in the 6 min trial. Forced swim test assesses antidepressant like effects of test compounds.

[6] = target: T2, recombinant human 5-HT1A receptor (Homo sapiens, UniProt P08908); experiment: Determination of Kb at 5-HT1A receptor, pCRE-Luc reporter gene assay in CHO cells; type: cell-based
T2 construct: expressed in transfected cells
T2 sequence (P08908 1-422): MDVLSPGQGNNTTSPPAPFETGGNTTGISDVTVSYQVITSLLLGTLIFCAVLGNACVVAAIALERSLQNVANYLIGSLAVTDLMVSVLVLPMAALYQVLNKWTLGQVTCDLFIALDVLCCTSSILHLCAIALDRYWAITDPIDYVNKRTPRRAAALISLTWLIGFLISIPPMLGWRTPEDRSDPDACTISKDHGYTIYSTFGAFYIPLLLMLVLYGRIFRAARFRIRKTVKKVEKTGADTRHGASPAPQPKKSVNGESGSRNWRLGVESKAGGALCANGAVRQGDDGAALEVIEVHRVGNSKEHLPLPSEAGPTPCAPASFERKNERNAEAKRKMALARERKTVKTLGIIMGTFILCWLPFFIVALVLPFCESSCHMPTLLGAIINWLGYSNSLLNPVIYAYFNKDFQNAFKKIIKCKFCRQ
Description: A stable CHO cell line expressing recombinant human 5-HT1A receptor and pCRE-Luc reporter system was used for cell-based assay. The assay offers a non-radioactive based approach to determine binding of a compound to GPCRs. In this specific assay, the level of intracellular cAMP which is modulated by activation or inhibition of the receptor is measured. The recombinant cells harbor luciferase reporter gene under the control of cAMP response element.
as §1, with “U92016A and 1 μM of forskolin” for “serotonin”

T1 sequence (P28223 whole entry): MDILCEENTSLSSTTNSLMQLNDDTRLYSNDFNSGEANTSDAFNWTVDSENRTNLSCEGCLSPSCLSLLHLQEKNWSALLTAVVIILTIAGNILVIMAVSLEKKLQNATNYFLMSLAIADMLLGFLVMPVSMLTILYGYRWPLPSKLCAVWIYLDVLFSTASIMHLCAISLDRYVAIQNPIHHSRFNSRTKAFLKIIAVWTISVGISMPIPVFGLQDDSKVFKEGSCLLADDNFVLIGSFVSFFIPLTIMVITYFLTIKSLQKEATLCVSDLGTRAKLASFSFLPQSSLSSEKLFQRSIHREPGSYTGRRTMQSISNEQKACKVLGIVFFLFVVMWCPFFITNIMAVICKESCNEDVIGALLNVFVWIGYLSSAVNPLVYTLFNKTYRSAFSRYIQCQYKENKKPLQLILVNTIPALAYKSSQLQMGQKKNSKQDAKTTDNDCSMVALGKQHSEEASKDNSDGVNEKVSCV

Q: With O=C1C[C@@H]2CCCN2C(=O)N1CCCCN1CCN(c2nsc3ccccc23)CC1 [Example 2, 2-[4-(4-Benzo[d]isothiazol-3-yl-piperazin-1-yl)-butyl]-tetrahydro-pyrrolo[1,2-c]pyrimidine-1,3-dione oxalate] as the compound, how does the “change in reserpine elevated DOPA levels in striatum” value ([1]; 10 mg/kg, rat, reserpine 5.0 mg/kg) read?
A: Its value is “no change”.

Q: What about the “effect of pre-treatment on apomorphine's decrease of reserpine-induced DOPA accumulation” value ([1]; pre-treatment before apomorphine 0.1 mg/kg, rat striatum) of the same compound?
A: The value was “blocked the effects of apomorphine”.

Q: What about the “agonist activity at human recombinant 5-HT2A receptor” value ([2]; pCRE-Luc reporter gene assay) of the same compound?
A: Its value is “no detectable agonist activity”.

Q: And the “antagonistic activity at human recombinant 5-HT2A receptor” value ([2]; pCRE-Luc reporter gene assay)?
A: Its value is “antagonistic activity”.

Q: And the Kb ([2]; with 1 μM serotonin, luciferase readout)?
A: The Kb was 8 nM.

Q: What about the “Inference, tardive dyskinesia like symptoms (VCMs and TPs)” value [3] of the same compound?
A: Its value is “Example-2 did not show tardive”.

Q: What about the “mean maximum increase in dopamine levels in prefrontal cortex” value ([4]; 3 mg/kg) of the same compound?
A: Its value is 326±24%.

Q: And the “mean maximum increase in norepinephrine levels in prefrontal cortex” value ([4]; 3 mg/kg)?
A: Its value is 187±30%.

Q: What about the “mean maximum increase in dopamine levels in prefrontal cortex” value ([4]; 10 mg/kg) of the same compound?
A: The value was 458±91%.

Q: What about the “mean maximum increase in norepinephrine levels in prefrontal cortex” value ([4]; 10 mg/kg) of the same compound?
A: Its value is 368±99%.

Q: And the “change in dopamine levels in striatum” value [4]?
A: Its value is “no change”.

Q: And the “Inference, mice forced swim test” value [5]?
A: Its value is “Active”.

Q: What about the “agonist activity at human recombinant 5-HT1A receptor” value ([6]; pCRE-Luc reporter gene assay) of the same compound?
A: The value was “no detectable agonist activity”.

Q: What about the “antagonistic activity at human recombinant 5-HT1A receptor” value ([6]; pCRE-Luc reporter gene assay) of the same compound?
A: The value was “antagonistic activity”.

Q: What about the Kb ([6]; with 1 μM U92016A and 1 μM forskolin, luciferase readout) of the same compound?
A: The Kb was 2.3 nM.
